Test results from PubChem BioAssay (NCI).
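Interpolation was linear, between the two tested concentrations surrounding the appropriate level; five concentrations were tested over 48 hours in 96-well plates. At the GI50, growth is halved. TGI denotes the concentration required for complete inhibition of growth.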

Key:
Test in all cases: inhibition of tumour cell growth, NCI panel, 48 h
UO-31 renal = system: UO-31 renal
UACC-257 melanoma = system: UACC-257 melanoma
HOP-62 NSCLC = system: HOP-62 NSCLC
OVCAR-4 ovarian = system: OVCAR-4 ovarian
A549 NSCLC = system: A549 NSCLC
SN12C renal = system: SN12C renal
TK-10 renal = system: TK-10 renal
BT-549 breast = system: BT-549 breast
OVCAR-8 ovarian = system: OVCAR-8 ovarian
HL-60(TB) leukemia = system: HL-60(TB) leukemia
EKVX NSCLC = system: EKVX NSCLC
786-0 renal = system: 786-0 renal
MOLT-4 leukemia = system: MOLT-4 leukemia
HT29 colon = system: HT29 colon
COLO 205 colon = system: COLO 205 colon
LOX IMVI melanoma = system: LOX IMVI melanoma
SK-MEL-2 melanoma = system: SK-MEL-2 melanoma
NCI-H522 lung = system: NCI-H522 lung
MDA-MB-231 breast = system: MDA-MB-231 breast
NCI/ADR-RES ovarian = system: NCI/ADR-RES ovarian
NCI-H226 lung = system: NCI-H226 lung
OVCAR-5 ovarian = system: OVCAR-5 ovarian
SF-539 CNS = system: SF-539 CNS
OVCAR-3 ovarian = system: OVCAR-3 ovarian
NCI-H23 lung = system: NCI-H23 lung
A498 renal = system: A498 renal
SW-620 colon = system: SW-620 colon
DU-145 prostate = system: DU-145 prostate
SF-268 CNS = system: SF-268 CNS
RPMI-8226 leukemia = system: RPMI-8226 leukemia
CCRF-CEM leukemia = system: CCRF-CEM leukemia
MDA-MB-435 = system: MDA-MB-435
HCT-15 colon = system: HCT-15 colon
M14 melanoma = system: M14 melanoma
SR leukemia = system: SR leukemia
HOP-92 NSCLC = system: HOP-92 NSCLC
HCT-116 colon = system: HCT-116 colon
HCC-2998 colon = system: HCC-2998 colon
NCI-H460 lung = system: NCI-H460 lung
RXF 393 renal = system: RXF 393 renal
SK-MEL-28 melanoma = system: SK-MEL-28 melanoma
T-47D breast = system: T-47D breast
KM12 colon = system: KM12 colon
ACHN renal = system: ACHN renal
UACC-62 melanoma = system: UACC-62 melanoma
HS 578T breast = system: HS 578T breast
SF-295 CNS = system: SF-295 CNS
K-562 leukemia = system: K-562 leukemia
SK-OV-3 ovarian = system: SK-OV-3 ovarian
MALME-3M melanoma = system: MALME-3M melanoma
SK-MEL-5 melanoma = system: SK-MEL-5 melanoma
MCF7 breast = system: MCF7 breast
PC-3 prostate = system: PC-3 prostate
SNB-75 CNS = system: SNB-75 CNS
U251 CNS = system: U251 CNS
SNB-19 CNS = system: SNB-19 CNS
IGROV1 ovarian = system: IGROV1 ovarian
CAKI-1 renal = system: CAKI-1 renal

COc1ccc(/C=C/C(=O)c2ccc(NC(=O)CSc3nnc(-c4ccc(OC)c(OC)c4)n3-c3ccccc3)cc2)cc1
GI50 (UO-31 renal): 1.48 µM | TGI (UO-31 renal): 3.84 µM | GI50 (UACC-257 melanoma): 12 µM | TGI (UACC-257 melanoma): 24.4 µM | GI50 (HOP-62 NSCLC): 4.36 µM | TGI (HOP-62 NSCLC): 19.4 µM | GI50 (OVCAR-4 ovarian): 1.96 µM | TGI (OVCAR-4 ovarian): 4.75 µM | GI50 (A549 NSCLC): 14.9 µM | TGI (A549 NSCLC): 31.7 µM | GI50 (SN12C renal): 2.25 µM | TGI (SN12C renal): 7.09 µM | GI50 (TK-10 renal): 14.6 µM | TGI (TK-10 renal): 28.1 µM | GI50 (BT-549 breast): 1.6 µM | TGI (BT-549 breast): 3.49 µM | GI50 (OVCAR-8 ovarian): 3.09 µM | TGI (OVCAR-8 ovarian): 14.1 µM | GI50 (HL-60(TB) leukemia): 2.57 µM | TGI (HL-60(TB) leukemia): 11.8 µM | GI50 (EKVX NSCLC): 3.05 µM | TGI (EKVX NSCLC): 14.6 µM | GI50 (786-0 renal): 1.78 µM | TGI (786-0 renal): 3.66 µM | GI50 (MOLT-4 leukemia): 2.26 µM | TGI (MOLT-4 leukemia): 9.14 µM | GI50 (HT29 colon): 1.86 µM | TGI (HT29 colon): 3.58 µM | GI50 (COLO 205 colon): 2.1 µM | TGI (COLO 205 colon): 4.56 µM | GI50 (LOX IMVI melanoma): 1.46 µM | TGI (LOX IMVI melanoma): 2.99 µM | GI50 (SK-MEL-2 melanoma): 5.03 µM | TGI (SK-MEL-2 melanoma): 23.3 µM | GI50 (NCI-H522 lung): 1.48 µM | TGI (NCI-H522 lung): 3.17 µM | GI50 (MDA-MB-231 breast): 1.73 µM | TGI (MDA-MB-231 breast): 3.65 µM | GI50 (NCI/ADR-RES ovarian): 2.66 µM | TGI (NCI/ADR-RES ovarian): > 100 µM | GI50 (NCI-H226 lung): 3.92 µM | TGI (NCI-H226 lung): 24.3 µM | GI50 (OVCAR-5 ovarian): 14 µM | TGI (OVCAR-5 ovarian): 28.3 µM | GI50 (SF-539 CNS): 1.8 µM | TGI (SF-539 CNS): 3.31 µM | GI50 (OVCAR-3 ovarian): 1.72 µM | TGI (OVCAR-3 ovarian): 3.26 µM | GI50 (NCI-H23 lung): 1.8 µM | TGI (NCI-H23 lung): 4.01 µM | GI50 (A498 renal): 14.7 µM | TGI (A498 renal): 28 µM | GI50 (SW-620 colon): 1.96 µM | TGI (SW-620 colon): 4.07 µM | GI50 (DU-145 prostate): 3.21 µM | TGI (DU-145 prostate): 10.8 µM | GI50 (SF-268 CNS): 1.89 µM | TGI (SF-268 CNS): 4.88 µM | GI50 (RPMI-8226 leukemia): 1.72 µM | TGI (RPMI-8226 leukemia): 4.41 µM | GI50 (CCRF-CEM leukemia): 1.85 µM | TGI (CCRF-CEM leukemia): 5.36 µM | GI50 (MDA-MB-435): 1.91 µM | TGI (MDA-MB-435): 4.13 µM | GI50 (HCT-15 colon): 1.8 µM | TGI (HCT-15 colon): 4.27 µM | GI50 (M14 melanoma): 1.8 µM | TGI (M14 melanoma): 3.9 µM | GI50 (SR leukemia): 0.724 µM | TGI (SR leukemia): 2.78 µM | GI50 (HOP-92 NSCLC): 1.56 µM | TGI (HOP-92 NSCLC): 3.45 µM | GI50 (HCT-116 colon): 1.17 µM | TGI (HCT-116 colon): 2.66 µM | GI50 (HCC-2998 colon): 2.97 µM | TGI (HCC-2998 colon): 10.1 µM | GI50 (NCI-H460 lung): 5.05 µM | TGI (NCI-H460 lung): 18 µM | GI50 (RXF 393 renal): 1.66 µM | TGI (RXF 393 renal): 3.35 µM | GI50 (SK-MEL-28 melanoma): 5.78 µM | TGI (SK-MEL-28 melanoma): 19.2 µM | GI50 (T-47D breast): 2.54 µM | TGI (T-47D breast): 12.4 µM | GI50 (KM12 colon): 2.24 µM | TGI (KM12 colon): 5.54 µM | GI50 (ACHN renal): 2.38 µM | TGI (ACHN renal): 6.1 µM | GI50 (UACC-62 melanoma): 2.26 µM | TGI (UACC-62 melanoma): 6.59 µM | GI50 (HS 578T breast): 7.68 µM | TGI (HS 578T breast): 54.3 µM | GI50 (SF-295 CNS): 12.2 µM | TGI (SF-295 CNS): 25.9 µM | GI50 (K-562 leukemia): 3.02 µM | TGI (K-562 leukemia): 10.8 µM | GI50 (SK-OV-3 ovarian): 13.1 µM | TGI (SK-OV-3 ovarian): 26.3 µM | GI50 (MALME-3M melanoma): 1.75 µM | TGI (MALME-3M melanoma): 3.49 µM | GI50 (SK-MEL-5 melanoma): 1.81 µM | TGI (SK-MEL-5 melanoma): 4.12 µM | GI50 (MCF7 breast): 1.41 µM | TGI (MCF7 breast): 5.14 µM | GI50 (PC-3 prostate): 3.09 µM | TGI (PC-3 prostate): 13.8 µM | GI50 (SNB-75 CNS): 2.6 µM | TGI (SNB-75 CNS): 14.9 µM | GI50 (U251 CNS): 1.75 µM | TGI (U251 CNS): 3.51 µM | GI50 (SNB-19 CNS): 3.5 µM | TGI (SNB-19 CNS): 16.9 µM

O=C(CSCC(=O)N/N=C\c1cc(Cl)cc(Cl)c1O)N/N=C\c1cc(Cl)cc(Cl)c1O
TGI (UO-31 renal): 17.5 µM | TGI (UACC-257 melanoma): 18.2 µM | TGI (HOP-62 NSCLC): 18.3 µM | TGI (OVCAR-4 ovarian): 19.1 µM | TGI (A549 NSCLC): 32.8 µM | TGI (SN12C renal): 16.2 µM | TGI (TK-10 renal): 21 µM | TGI (BT-549 breast): 25.8 µM | TGI (OVCAR-8 ovarian): 14.3 µM | TGI (HL-60(TB) leukemia): 13.9 µM | TGI (EKVX NSCLC): 28.3 µM | TGI (IGROV1 ovarian): 15.3 µM | TGI (786-0 renal): 20 µM | TGI (MOLT-4 leukemia): 8.81 µM | TGI (HT29 colon): 22.3 µM | TGI (COLO 205 colon): 20.4 µM | TGI (LOX IMVI melanoma): 10.8 µM | TGI (SK-MEL-2 melanoma): 12.9 µM | TGI (NCI-H522 lung): 6.59 µM | TGI (CAKI-1 renal): 15 µM | TGI (MDA-MB-231 breast): 13.5 µM | TGI (NCI/ADR-RES ovarian): 12.5 µM | TGI (NCI-H226 lung): 15 µM | TGI (OVCAR-5 ovarian): 22.9 µM | TGI (SF-539 CNS): 11.1 µM | TGI (OVCAR-3 ovarian): 6.83 µM | TGI (NCI-H23 lung): 22.9 µM | TGI (SW-620 colon): 16.2 µM | TGI (DU-145 prostate): 21.1 µM | TGI (SF-268 CNS): 15.7 µM | TGI (CCRF-CEM leukemia): 0.748 µM | TGI (MDA-MB-435): 21.1 µM | TGI (HCT-15 colon): 12.9 µM | TGI (M14 melanoma): 17.5 µM | TGI (SR leukemia): 11 µM | TGI (HOP-92 NSCLC): 31.4 µM | TGI (HCT-116 colon): 12.8 µM | TGI (NCI-H460 lung): 42.8 µM | TGI (RXF 393 renal): > 100 µM | TGI (SK-MEL-28 melanoma): 18.9 µM | TGI (T-47D breast): 27.9 µM | TGI (KM12 colon): 19.7 µM | TGI (ACHN renal): 11.7 µM | TGI (UACC-62 melanoma): 13.7 µM | TGI (HS 578T breast): 20.1 µM | TGI (SF-295 CNS): 21 µM | TGI (K-562 leukemia): 12.7 µM | TGI (SK-OV-3 ovarian): 24 µM | TGI (MALME-3M melanoma): 8.02 µM | TGI (SK-MEL-5 melanoma): 16.3 µM | TGI (MCF7 breast): 34.5 µM | TGI (PC-3 prostate): 18.5 µM | TGI (SNB-75 CNS): 36 µM | TGI (U251 CNS): 6.61 µM | TGI (SNB-19 CNS): > 100 µM
